According to US9163063B2, “Peptides and nanoparticles for therapeutic and diagnostic applications” (Trustees of Dartmouth College, priority 2009, dated 2015):
Ends that are not written are not given here. Peptide text beside a SMILES is read from it. * marks the point of attachment. fluorescein = fluorescein group attached to the lysine side chain; Benzoyl(4-Br) = O=C(c1ccc(Br)cc1)*; Myristoyl = CCCCCCCCCCCCCC(=O)*; Bz = O=C(c1ccccc1)*

How the values were obtained:
[1] = tested on: AsPC1 cells; assay: Cellular localization of fluorescein-tagged analogs (confocal); assay type: cell-based, human
Description: Furthermore, the cellular localization of both CR1023 and CR1166 was investigated in AsPC1 cells using their fluorescein-tagged analogs CR1171 and CR1173 (FIG. 24). CR1172, the fluorescein-tagged analog of CR1164 was used as a control. The green (for fluorescein) and blue (for DAPI) fluorescent microscopy images were collected for AsPC1 cells treated with peptides CR1171, CR1172 and CR1173 using a LSM 510 confocal laser scan microscope. The presence of green fluorescence in FIGS. 24d, -g, -j indicated the internalization of CR1171, CR1172 and CR1173. Untreated AsPC1 cells were devoid of the green fluorescent signal.

[2] = tested on: MDA-MB-231-WT cells; assay: Apoptosis assay (annexin/PI); assay type: cell-based; details: 50-200 μM
Method: (§1) MDA231-WT and AsPC1 ells were seeded into 6-well plates at a density of 4×10^5/2 ml of RPMI medium per well and grown overnight. Next day cells were treated with GIPC inhibitor peptides in a time dependent (48 h-96 h) and dose dependent manner (50-200 μM). After treatment with definite time, cells were extensively washed with PBS and tested with the Annexin V-FITC Apoptosis Detection Kit (Biovision, Cat. No. #K101-100) per the manufacturer's instructions.

[3] = tested on: MDA-MB-231-WT breast cancer cells; assay type: cell-based; details: 50-200 μM, 48 h-96 h (Example 6)
Method: (§2) MDA231-W and AsPC1 cells were cultured in RPMI 1640 media supplemented with 10% fetal bovine serum (FBS), 5% L-Glutamine, and 1% antibiotics (penicillin-streptomycin purchased from Invitrogen, Carlsbad, Calif.). Cells were maintained at 37° C. in an atmosphere containing 95% air-5% CO2 (v/v). Cells were then incubated with different doses of GIPC inhibitor peptides (50-200 μM) for different time (48 h to 96 h). MDA-231 WT (4×10^4) and AsPC1 cells (2×10^4) were seeded in 24-well plates, cultured for 1 d in RPMI 1640 medium supplemented with 10% FBS, 5% L-Glutamine, and 1% antibiotics. Cells were then incubated with GIPC inhibitor peptides in a time dependent (48 h-96 h) and dose dependent manner (50-200 μM). After certain time of incubation, 1 μCi [^3H]-thymidine was added and proliferation assay performed as previously described. Experiments were repeated at least thrice and in triplicate.

[4] = tested on: AsPC1 cells; assay: Apoptosis assay (annexin/PI); assay type: cell-based, human; details: 50-200 μM
Method: as §1

[5] = tested on: AsPC1 cells; assay type: cell-based, human; details: 50-200 μM, 48 h-96 h (Example 6)
Method: as §2

[6] = tested on: MIAPaCa2 pancreatic cancer cells; assay: Subcutaneous MIAPaCa2 tumor, intratumoral peptide for 27 days; assay type: in vivo, nude mice; details: whole course of treatment
Method: When the tumor reached about 5 mm-15 mm in diameter after subcutaneous transplantation of MIAPaCa2 cells (n=10 treatment, n=10 control) into the mouse right flank, mice were treated with 10 mM of peptide for 27 days dissolved in DMSO. The peptide was applied directly into the tumor. The control group was treated with phosphate buffered saline solution alone.
HE staining and immunostaining for Ki67 (n=6 treatment, n=7 control) was performed as described by the manufacturer. For evaluation the Zeiss Axioplan 2 microscope was used. Photos are made with Zeiss Axiocam. For photos 40× objectives were used. Statistical Analysis. Data are presented as means and differences in means with 95% confidence intervals for the differences. Tests for statistical differences were performed using t-tests and Mann-Whitney tests and Wilcoxon tests. For the in vivo experiments, at least 10 mice were used each group. This number was derived by power analysis to detect a 50% reduction in tumor size, with a beta error of 3%. Because the overall sample size was small and outcome variables could have a non-normal distribution, the non-parametric Mann-Whitney test was used to detect statistical significant differences in each group. P values less than 0.05 were considered to be significant. The significance of the tumor take rates was calculated by using a Wilcoxon-test. […]

## My-K(FI)PSQSSSEA (Myristoyl-K(fluorescein)PSQSSSEA) [CR1171]
[1]
  cellular localization: more dispersely localized
  internalization (green fluorescence): internalization

## My-SPSASK(4-Br-ben)SQ (Myristoyl-SPSASK(Benzoyl(4-Br))SQ) [CR2059]
[2]
  induction of apoptosis: no effect
[3]
  inhibition of cell proliferation: very little effect
[4]
  induction of apoptosis: no effect
[5]
  inhibition of cell proliferation: very little effect

## My-LLQGPSQSSSEA (Myristoyl-LLQGPSQSSSEA) [SEQ ID NO: 22]
[2]
  induction of apoptosis: significant induction of apoptosis
[3]
  inhibition of cell proliferation: significant inhibitions
[4]
  induction of apoptosis: significant induction of apoptosis
[5]
  inhibition of cell proliferation: significant inhibitions

## My-SESPSASQ (Myristoyl-SESPSASQ) [CR2055]
[2]
  induction of apoptosis: no effect
[3]
  inhibition of cell proliferation: no effect
[4]
  induction of apoptosis: no effect
[5]
  inhibition of cell proliferation: no effect

## My-PSQSK(4-Br-ben)SEA (Myristoyl-PSQSK(Benzoyl(4-Br))SEA) [CR1170]
[2]
  induction of apoptosis: no effect
[4]
  induction of apoptosis: no effect

## My-PSQSK(ben)SK(ben)A (Myristoyl-PSQSK(Bz)SK(Bz)A) [CR1164]
[2]
  induction of apoptosis: no effect
[3]
  inhibition of cell proliferation: almost no or little effect
[4]
  induction of apoptosis: no effect
[5]
  inhibition of cell proliferation: almost no or little effect

## My-K(FI)PSQSK(4-Br-ben)SK(4-Br-ben)A (Myristoyl-K(fluorescein)PSQSK(Benzoyl(4-Br))SK(Benzoyl(4-Br))A) [CR1173]
[1]
  cellular localization: localized on the membrane
  internalization (green fluorescence): internalization

## CCCCCCCCCCCCCC(=O)N1CCC[C@H]1C(=O)N[C@@H](CO)C(=O)N[C@@H](CCC(N)=O)C(=O)N[C@@H](CO)C(=O)N[C@@H](CO)C(=O)N[C@@H](CO)C(=O)N[C@@H](CCC(=O)O)C(=O)N[C@@H](C)C(=O)O [PSQSSSEA, P-S-Q-S-S-S-E-A] (Myristoyl-PSQSSSEA-OH)
[6]; listed as GIPC-PDZ-targeting peptide
  toxicity during treatment: without showing toxicity
[6]; listed as PDZ domain inhibitor
  toxicity during treatment: did not show any toxicity

## My-PSQSSSK(4-Br-ben)A (Myristoyl-PSQSSSK(Benzoyl(4-Br))A) [CR1162]
[3]
  inhibition of cell proliferation: almost no or little effect
[5]
  inhibition of cell proliferation: almost no or little effect

## My-K(FI)PSQSK(ben)SK(ben)A (Myristoyl-K(fluorescein)PSQSK(Bz)SK(Bz)A) [CR1172]
[1]
  cellular localization: more dispersely localized
  internalization (green fluorescence): internalization
